Data set [1] has as its system FRS2α. The data set is described as follows: FRS2 phosphorylation in mutant cells expressing constitutively activated Crouzon-like mutant Fgfr2c isoform. Format: cell-based. Particulars: results not shown. The procedure:
(§1) We first tested the effect of PLX052 in vitro for blocking the activation of FGFR2. Cells were pretreated for 5 minutes with the compound before stimulation. […] We further tested the ability of PLX052 in blocking the FRS2 phosphorylation in mutant cells expressing constitutively activated Crouzon-like mutant Fgfr2c isoform.

The subject of another data set is MAP Kinase signaling. The data set is described as follows: MAP Kinase signaling in mutant cells expressing constitutively activated Crouzon-like mutant Fgfr2c isoform. The data set is classed as cell-based. Particulars: results not shown. Here is the method: as §1
The next data set deals with T1, FGFR2 (Mus musculus, UniProt P21803).
T1 construct: expressed in transfected cells; host or cells: 3T3 cells
T1 sequence (P21803 22-821): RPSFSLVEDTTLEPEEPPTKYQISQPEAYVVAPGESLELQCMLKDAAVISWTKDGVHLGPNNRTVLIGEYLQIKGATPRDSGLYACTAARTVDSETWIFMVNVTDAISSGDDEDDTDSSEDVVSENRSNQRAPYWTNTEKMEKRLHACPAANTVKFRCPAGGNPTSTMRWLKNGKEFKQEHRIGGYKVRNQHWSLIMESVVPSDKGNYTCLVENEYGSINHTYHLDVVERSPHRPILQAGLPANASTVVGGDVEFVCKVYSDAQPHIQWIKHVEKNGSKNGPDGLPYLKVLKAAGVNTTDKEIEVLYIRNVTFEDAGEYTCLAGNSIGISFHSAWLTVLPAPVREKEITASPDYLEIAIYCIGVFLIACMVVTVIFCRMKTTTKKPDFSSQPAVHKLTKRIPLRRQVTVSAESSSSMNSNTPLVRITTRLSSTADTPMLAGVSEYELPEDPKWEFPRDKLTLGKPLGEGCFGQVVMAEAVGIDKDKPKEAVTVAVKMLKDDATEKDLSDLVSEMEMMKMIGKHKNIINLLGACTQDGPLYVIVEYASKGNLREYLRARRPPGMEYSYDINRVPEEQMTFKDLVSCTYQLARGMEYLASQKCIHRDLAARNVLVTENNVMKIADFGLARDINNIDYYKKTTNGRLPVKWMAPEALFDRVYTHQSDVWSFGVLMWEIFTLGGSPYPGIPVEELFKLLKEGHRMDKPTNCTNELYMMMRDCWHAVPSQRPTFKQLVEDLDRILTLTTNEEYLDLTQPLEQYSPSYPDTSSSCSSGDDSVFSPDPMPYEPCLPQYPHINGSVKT
The data set is described as follows: Blocking ligand-stimulated tyrosine autophosphorylation of FLAG-tagged FGFR2 in 3T3 cells (IP / anti-pTyr immunoblot). Particulars: 3T3 cells pretreated 5 minutes, then ligand stimulated 5 minutes at 37° C. The data set is classed as cell-based. Here is the method: FIGS. 14A-D show pharmacological intervention in FGFR activation. (C) Structure of [4-(3,5-difluorophenyl)-1H-pyrrolo[2,3-b]pyridin-3-yl](3-methoxyphenyl)methanone (PLX052). (D) 3T3-cells treated for 5 minutes with PLX052 were ligand stimulated for 5 minutes at 37° C. Cell lysates were subjected to immunoprecipitation with anti-FLAG tag antibodies (the expression vector contains a tag in the c-terminus of FGFR2) followed by immunoblotting with either anti-phosphotyrosine (pTyr) or anti-FLAG antibodies. (A & B) Crystals of the apo-FGFR1 minimal kinase domain were grown at 4° C. by vapor diffusion in hanging drops containing 2 uL of 12 mg/mL protein solution and 2 uL of reservoir solution: 16% PEG8K, 0.25 M (NH4)2SO4, 5% ethylene glycol, 10 mM DTT, and 0.1 M Bis Tris, pH 5.8. Native crystals were soaked overnight at 4° C. in mother liquor containing 2 mM PLX052 and 5% DMSO. Complexed crystal belongs to monoclinic space group C2 and has unit cell dimensions a=211.9 Å, b=49.7 Å, c=66.2 Å, and β=107.4°. One cryo-cooled crystal was used for data collection, and data was collected at beamline X26 at Brookhaven National Laboratory. Co-crystallization of the kinase with PLX052 was also performed and found the same structural result. […] The nucleotide binding loop is shown in blue, the hinge region in magenta, and the catalytic core in yellow. (A) The side chains that interact with PLX052. […]
For orientation: Immunoblotting shows a protein as a band on a membrane.

Data set [2] deals with wild type suture (calvaria). Put plainly: Calvaria organ culture, wild type mice: suture development. Format: cell-based, mouse. Particulars: for normal development of the sutures in the wild type: cultured 21 days. The procedure: (§2) FIGS. 15A-15D show results of in vitro culture of calvaria with FGFR inhibitor PLX052. Calvaria harvested from the Crouzon mutant and wild type E18.5 day old embryos were cultured in DMEM medium containing 10% FCS supplemented with ascorbic acid at 100 μg/ml and 1 μM PLX052 in 24 well plates. Medium was changed on alternate days along with the inhibitor. Controls were cultured with the vehicle only (0.2% DMSO). Calvaria were cultured for 14 days. After the specified time, calvaria were fixed in 10% buffered formalin, dehydrated followed by infiltration and embedding in methylmethacrylate plastic. Blocks were cut perpendicular to the coronal suture, that passes through the frontal bone (anterior side) and the parietal bone (posterior side). […] sections were collected and stained with toludine blue (FIG. 15.2, left panels). Adjacent sections were stained for minerals of the bone matrix using Van Kossa followed by methyl green counter staining. (A) wild type, and (B), mutant calvaria cultured with the vehicle alone (0.2% DMSO). Note the open suture in the wild type (A) and the fused suture in the mutant (B) cultured calvaria. (C), wild type and (D), mutant cultured with 1 μM PLX052 (in 0.2% DMSO). The left panels [(i), (iii)] are toluidine blue staining and the right panels [(ii), (iv)] are Van Kossa with methyl green counter staining. Lower panels [(iii), (iv)] are the higher magnification of the sutures shown in the boxed region of the upper panels [(i), (ii)].
(§3) PLX052 prevents cranial suture fusion in vitro. Next, we tested the ability of the PLX052 to prevent craniosynostosis in calvaria organ culture from wt and Crouzon-like mutant mice (FIG. 15). […] The calavria organ culture experiments were repeated with two different concentrations of PLX052 (1 μM and 5 μM) and cultured for extended period of time (21 days) to assess the dose response for this inhibitor (see below). […] Higher concentrations of PLX052 (50 μM and above) have caused extensive cell death within 24 hours in cultured cells. […]

Data set [3] concerns coronal suture of Crouzon-like mutant mice calvaria. Put plainly: Calvaria organ culture, Crouzon-like mutant mice: coronal suture fusion. The data set is classed as cell-based, mouse. Particulars: for premature fusion of coronal suture of mutant mice calvaria: cultured 21 days. Here is the method: as §2, §3
For a further data set, the system named is cultured cells. The data set is described as follows: Cell death in cultured cells. Format: cell-based. Particulars: within 24 hours. Here is the method: PLX052 prevents cranial suture fusion in vitro. Next, we tested the ability of the PLX052 to prevent craniosynostosis in calvaria organ culture from wt and Crouzon-like mutant mice (FIG. 15). […] The calavria organ culture experiments were repeated with two different concentrations of PLX052 (1 μM and 5 μM) and cultured for extended period of time (21 days) to assess the dose response for this inhibitor (see below). […] Higher concentrations of PLX052 (50 μM and above) have caused extensive cell death within 24 hours in cultured cells. Therefore, it is feasible to use limited amount of inhibitor to attenuate the abnormal signaling from the mutant receptors without causing adverse effect on the normal signaling pathways.

Data set [4] relates to FRS2α. Particulars: unstimulated cells treated with the MEK inhibitor; cited from earlier work.
[5] abbreviates: 1 μM, E18.5 calvaria cultured 14 days.

Here are results for two compounds from US7872016B2, “Method for treating skeletal disorders resulting from FGFR malfunction” (Yale University, priority 2004, dated 2011).

SMILES strings stand for the structures. Entries after “also recorded” stand apart in the source; their conditions may differ.

As for `COc1cccc(C(=O)c2c[nH]c3nccc(-c4cc(F)cc(F)c4)c23)c1` [PLX052, [4-(3,5-difluorophenyl)-1H-pyrrolo[2,3-b]pyridin-3-yl](3-methoxyphenyl)methanone], the “phosphorylation of FRS2α” value in the data set on FRS2α [1] is given as “significant reduction in the phosphorylation of FRS2α”. The “MAP Kinase signaling” value with MAP Kinase signaling is given as “attenuated MAP Kinase signaling”. For the same compound, the “concentration that inhibits FGFR activation to basal levels (tyrosine autophosphorylation of FGFR2)” value at FGFR2 was 10 µM. In addition, the “growth of the wild type suture” value in data set [2] (setting [5]) is “did not affect the growth of the wild type suture”. Further, the “normal development of the sutures in the wild type” value in data set [2] (1 μM) and in data set [2] (5 μM) was “without affecting the normal development of the sutures in the wild type” throughout. Also, in data set [3] (setting [5]), the “premature fusion of coronal suture in mutant calvaria in vitro” value was “able to rescue the premature fusion of coronal suture; also recorded: open suture in the mutant cultured with PLX052”. In addition, the “premature fusion of coronal suture of mutant mice calvaria” value in data set [3] (1 μM) and in data set [3] (5 μM) was “able to prevent the premature fusion of coronal suture” throughout. Also, in the data set on cultured cells, the “concentration causing extensive cell death” value was no less than 50 µM.

As for `COc1cccc(-c2cc(=O)c3ccccc3o2)c1N` [PD 0980089], the “tyrosine phosphorylation of FRS2α” value with FRS2α [4] is listed as “leads to constitutive tyrosine phosphorylation of FRS2α”.
